Structures can show the parent of a compound that is named as a salt.
Tests used:
[1] = in vitro; conditions: human, MT4 cells, mock-infected (CC50) and HIV1 3B infected (EC50)
Description: Selectivity index, ratio of CC50 for mock-infected human MT4 cells to EC50 for HIV1 3B infected in human MT4 cells

[2] = system: Human immunodeficiency virus 1; test: Antiviral activity against HIV1 3B infected in human MT4 cells assessed as inhibition of virus-induced […] after 5 days by MTT assay; format: functional, organism-based; conditions: Human immunodeficiency virus 1, 3B, MT4, 120 h
[3] = system: Human immunodeficiency virus 2; test: Antiviral activity against HIV2 ROD infected in human MT4 cells assessed as inhibition of virus-induced […] after 5 days by MTT assay; format: functional, organism-based; conditions: Human immunodeficiency virus 2, ISOLATE ROD, MT4, 120 h
[4] = target: Human immunodeficiency virus type 1 reverse transcriptase (Human immunodeficiency virus 1, UniProt Q72547); test: Inhibition of HIV1 reverse transcriptase assessed as reduction in biotin-dUTP incorporation using poly(rA)-oligo(dT) as template/primer and digoxigenin-/biotin-labeled dUTP nucleotides incubated for 1 hr
[5] = system: Human immunodeficiency virus 1; test: Antiviral activity against HIV1 RES056 expressing reverse transcriptase K103N + Y181C mutant infected in human MT4 cells assessed as inhibition of virus-induced […] after 5 days by MTT assay; format: functional, organism-based; conditions: Human immunodeficiency virus 1, RES056, MT4, 120 h
[6] = Cytotoxicity against mock-infected human MT4 cells after 5 days by MTT assay; format: cell-based

SMILES | selectivity ratio [1] | EC50 [2] [µM] | EC50 [3] [µM] | IC50 [4] [µM] | EC50 [5] [µM] | CC50 at 120 h [6] [µM]
Cc1cc(C#N)cc(C)c1Oc1cc(Nc2ccc(C#N)cc2)ncc1C(=O)NCCN(C)C | ≤ 3 | > 8.8 | > 7.5 | 25.8 | > 23.2 | 23.2
CCCNC(=O)c1cnc(Nc2ccc(C#N)cc2)cc1Oc1c(C)cc(C#N)cc1C | 321 | 0.54 | > 170 | 4.14 | > 170 | 170
COCCNC(=O)c1cnc(Nc2ccc(C#N)cc2)cc1Oc1c(C)cc(C#N)cc1C | 35 | 1.74 | > 61 | 11.3 | > 61 | 61
Cc1cc(C#N)cc(C)c1Oc1cc(Nc2ccc(C#N)cc2)ncc1C(=O)NCC1CC1 | ≥ 175 | 0.85 | > 146 | 4.25 | > 146 | > 146
C#CCNC(=O)c1cnc(Nc2ccc(C#N)cc2)cc1Oc1c(C)cc(C#N)cc1C | 703 | 0.24 | > 167 | 1.29 | > 167 | 167
COC(CNC(=O)c1cnc(Nc2ccc(C#N)cc2)cc1Oc1c(C)cc(C#N)cc1C)OC | 20 | 4.54 | > 90.6 | 11.4 | > 90.6 | 90.6
Cc1cc(C#N)cc(C)c1Oc1cc(Nc2ccc(C#N)cc2)ncc1C(=O)NC1CC1 | 784 | 0.31 | > 231 | 3.37 | > 231 | 231
Cc1cc(C#N)cc(C)c1Oc1cc(Nc2ccc(C#N)cc2)ncc1C(=O)NCC1CCCO1 (stereo unspecified) | 46 | 3.1 | > 142 | 10.9 | > 142 | 143
C=CCNC(=O)c1cnc(Nc2ccc(C#N)cc2)cc1Oc1c(C)cc(C#N)cc1C | 625 | 0.24 | > 207 | 2.85 | > 207 | 207
Cc1cc(C#N)cc(C)c1Oc1cc(Nc2ccc(C#N)cc2)ncc1C(=O)NCCC#N | 97 | 0.69 | > 65.8 | 3.94 | > 65.8 | 65.8
Cc1cc(C#N)cc(C)c1Oc1cc(Nc2ccc(C#N)cc2)ncc1C(N)=O | > 6200 | 0.05 | > 326 | 0.08 | > 326 | > 326
Cc1cc(C)c(Oc2cc(Nc3ccc(C#N)cc3)ncc2C(=O)NCCN(C)C)c(C)c1 | 7 | 0.63 | > 16.7 | 3.45 | > 16.7 | 4.67
CCCNC(=O)c1cnc(Nc2ccc(C#N)cc2)cc1Oc1c(C)cc(C)cc1C | 335 | 0.055 | > 11.1 | 0.32 | > 11.2 | 18.9
COCCNC(=O)c1cnc(Nc2ccc(C#N)cc2)cc1Oc1c(C)cc(C)cc1C | 359 | 0.067 | > 24 | 0.52 | 7.8 | 24
Cc1cc(C)c(Oc2cc(Nc3ccc(C#N)cc3)ncc2C(=O)NCC2CC2)c(C)c1 | 264 | 0.11 | > 30.6 | 0.68 | > 30.6 | 30.6
C#CCNC(=O)c1cnc(Nc2ccc(C#N)cc2)cc1Oc1c(C)cc(C)cc1C | 2470 | 0.029 | > 73 | 0.07 | 6.1 | 73
COC(CNC(=O)c1cnc(Nc2ccc(C#N)cc2)cc1Oc1c(C)cc(C)cc1C)OC | 83 | 0.28 | > 23.2 | 1.89 | > 23.2 | 23.2
Cc1cc(C)c(Oc2cc(Nc3ccc(C#N)cc3)ncc2C(=O)NC2CC2)c(C)c1 | 103 | 0.24 | > 25.7 | 0.23 | > 25.8 | 25.8
Cc1cc(C)c(Oc2cc(Nc3ccc(C#N)cc3)ncc2C(=O)NCC2CCCO2)c(C)c1 (stereo unspecified) | > 1490 | 0.18 | > 274 | 1.2 | > 274 | > 274
C=CCNC(=O)c1cnc(Nc2ccc(C#N)cc2)cc1Oc1c(C)cc(C)cc1C | 364 | 0.058 | > 21.5 | 0.17 | 10.1 | 21.3
Cc1cc(C)c(Oc2cc(Nc3ccc(C#N)cc3)ncc2C(=O)NCCC#N)c(C)c1 | 310 | 0.033 | > 9.9 | 0.19 | > 9.89 | 9.89
Cc1cc(C)c(Oc2cc(Nc3ccc(C#N)cc3)ncc2C(N)=O)c(C)c1 | > 12500 | 0.027 | > 336 | 0.02 | > 336 | > 336
CC(C)Nc1cccnc1N1CCN(C(=O)c2cc3cc(NS(C)(=O)=O)ccc3[nH]2)CC1 [DELAVIRDINE MESYLATE] | > 67 | 0.66 | – | – | > 43.8 | > 43.8
O=c1[nH]cnc2c1ncn2[C@H]1CC[C@@H](CO)O1 [DIDANOSINE] | > 9 | 23.2 | 44.9 | – | – | > 212
O=C1Nc2ccc(Cl)cc2[C@@](C#CC2CC2)(C(F)(F)F)O1 [EFAVIRENZ] | – | 0.0063 | – | – | – | > 6.34
Cc1cc(C#N)cc(C)c1Oc1nc(Nc2ccc(C#N)cc2)nc(N)c1Br [ETRAVIRINE] | > 1130 | 0.0041 | – | – | 0.025 | > 4.59
Nc1ccn([C@@H]2CS[C@H](CO)O2)c(=O)n1 [LAMIVUDINE] | > 39 | 2.22 | 8.81 | – | – | > 87.2
Cc1ccnc2c1NC(=O)c1cccnc1N2C1CC1 [NEVIRAPINE] | – | 0.31 | – | – | > 7.58 | > 15
Cc1cn([C@H]2C[C@H](N=[N+]=[N-])[C@@H](CO)O2)c(=O)[nH]c1=O [ZIDOVUDINE] | – | – | 0.0067 | – | 0.01 | > 93.5

Source: ChEMBL document CHEMBL3351775, “Design, synthesis and anti-HIV evaluation of novel diarylnicotinamide derivatives (DANAs) targeting the entrance channel of the NNRTI binding pocket through structure-guided molecular hybridization” (Eur J Med Chem, 2014)
